One may read the melting point as the temperature, or range, at which the solid turns liquid. The ED50 is the dose at which the effect has come halfway, by size or by number of responders.

Consider 15 compounds from patent US9120728B2, “Modulators of cortical dopaminergic- and NMDA-receptor-mediated glutamatergic neurotransmission” (INTEGRATIVE RESEARCH LABORATORIES SWEDEN AB, priority 2011, dated 2015).

Counter-ions that a name gives are not always drawn.

Data set [1] concerns DOPAC (3,4-dihydroxyphenylacetic acid) in the rat striatum. Description: Increase of DOPAC (3,4-dihydroxyphenylacetic acid) in the rat striatum after systemic administration. It counts as in vivo. To be noted: sc, estimated ED50 on increase of DOPAC in rat striatum, dose range 0-100 μmol/kg s.c., curve fitting. The source says: The increased turnover of dopamine in the terminal areas of the ascending dopaminergic projections of the mammalian brain can be illustrated by measuring of changes in biochemical indices in the brain with the characteristic features of dopamine antagonists, e.g. producing increases in concentrations of dopamine metabolites such as 3,4-dihydroxyphenyl-acetic acid (DOPAC) in the striatum.
After the behavioural activity sessions, the rats are decapitated and their brains rapidly taken out and put on an ice-cold petri-dish. The limbic forebrain, the striatum, the frontal cortex and the remaining hemispheral parts of each rat are dissected and frozen. Each brain part is subsequently analyzed with respect to its content of monoamines and their metabolites.
The monoamine transmitter substances (NA (noradrenaline), DA (dopamine), 5-HT (serotonin)) as well as their amine (NM (normethanephrine), 3-MT (3-methoxytyramine)) and acid (DOPAC (3,4-dihydroxyphenylacetic acid), 5-HIAA (5-hydroxyindoleacetic acid), HVA (homovanillic acid)) metabolites are quantified in brain tissue homogenates by HPLC separations and electrochemical detection
The analytical method is based on two chromatographic separations dedicated for amines or acids. Two chromatographic systems share a common auto injector with a 10-port valve and two sample loops for simultaneous injection on the two systems. Both systems are equipped with a reverse phase column (Luna C18(2), dp 3 μm, 50×2 mm i.d., Phenomenex) and electrochemical detection is accomplished at two potentials on glassy carbon electrodes (MF-1000, Bioanalytical Systems, Inc.). The column effluent is passed via a T-connection to the detection cell or to a waste outlet. This is accomplished by two solenoid valves, which block either the waste or detector outlet. By preventing the chromatographic front from reaching the detector, better detection conditions are achieved. The aqueous mobile phase (0.4 ml/min) for the acid system contains citric acid 14 mM, sodium citrate 10 mM, MeOH 15% (v/v) and EDTA 0.1 mM. Detection potentials relative to Ag/AgCl reference are 0.45 and 0.60V. […] Detection potentials relative to Ag/AgCl reference are 0.45 and 0.65V.
ED50 value for the increase of DOPAC in striatum is calculated by curve fitting. The evaluation is based on 40 animals over the dose range 0, 3.7, 11, 33 and 100 μmol/kg s.c. in two combined experiments. The DOPAC levels are normalised to control and fitted by least square minimization to the function “End-(End-Control)/(1+(dose/ED50)^slope)”. The four parameters (Control, End, ED50 and Slope) are fitted with the restrictions: ED50>0, 0.5<Slope<3, 350<End<400% of control. To estimate confidence levels for the parameters, the fit is repeated 100 times with a random evenly distributed squared weight (0 to 1) for every measurement value. Presented ED50-ranges cover 95% of these values.

Data set [2] has as its system drug-naive rats. Description: Effects on spontaneous locomotion (locomotor activity in drug-naive rats). As to conditions: recorded for 60 minutes immediately after drug administration. It counts as in vivo, rat. As to the method: Prior art dopamine receptor antagonists are known to induce profound decrease in locomotor activity (catalepsy).
Behavioural activity is measured using eight Digiscan activity monitors (RXYZM (16) TAO, Omnitech Electronics, Columbus, Ohio, USA), connected to an Omnitech Digiscan analyzer and an Apple Macintosh computer equipped with a digital interface board (NB DIO-24, National Instruments, USA). Each activity monitor consists of a quadratic metal frame (W×L=40 cm×40 cm) equipped with photobeam sensors. During measurements of behavioural activity, a rat is put in a transparent acrylic cage (WxLxH, 40×40×30 cm) which in turn is placed in the activity monitor. Each activity monitor is equipped with three rows of infrared photobeam sensors, each row consisting of 16 sensors. Two rows are placed along the front and the side of the floor of the cage, at a 90° angle, and the third row is placed 10 cm above the floor to measure vertical activity. Photobeam sensors are spaced 2.5 cm apart. Each activity monitor is fitted in an identical sound and light attenuating box containing a weak house light and a fan.
The computer software is written using object oriented programming (LabVIEW®, National instruments, Austin, Tex., USA).
Behavioural data from each activity monitor, representing the position (horizontal center of gravity and vertical activity) of the animal at each time, are recorded at a sampling frequency of 25 Hz and collected using a custom written LABView™ application. The data from each recording session are stored and analyzed with respect to distance traveled. Each behavioural recording session lasts 60 min, starting approximately 4 min after the injection of test compound. Similar behavioural recording procedures are applied for drug-naïve and drug pre-treated rats. Rats pre-treated with d-amphetamine are given a dose of 1.5 mg/kg i.p. 10 min before the recording session in the activity monitor. Rats pre-treated with MK-801 are given a dose of 0.7 mg/kg i.p. 90 min before the recording session in the activity monitor. The results are presented as counts/60 minutes, or counts/30 minutes, in arbitrary length units. Statistical comparisons are carried out using Student's t-test against the control group. In MK-801 or amphetamine pre-treated animals, statistical comparisons are made against the MK801 or d-amphetamine controls, respectively.

For data set [3], the system named is d-amphetamine pre-treated rats. Put plainly: Reduction of amphetamine-induced hyper-locomotion. It counts as in vivo. To be noted: Rattus norvegicus; rats pre-treated with d-amphetamine 1.5 mg/kg i.p.; test compound 0-100 μmol/kg s.c.; distance during last 45 minutes of one hour. The source says: The increase in activity after treatment with d-amphetamine is a standard model of hyperdopaminergia. In this model, dopaminergic neurotransmission is increased by systemic administration of d-amphetamine at a dose that is sufficiently high to produce a large increase in locomotor activity. The ability of a compound to antagonize this hyperactivity reflects anti-dopaminergic properties. Furthermore, antagonism of d-amphetamine induced hyperactivity is widely used as a standard assay of antipsychotic activity (see Psychopharmacology 4th Generation of progress Chapter 68, p 793-795).
Behavioural activity is measured using eight Digiscan activity monitors (RXYZM (16) TAO, Omnitech Electronics, Columbus, Ohio, USA), connected to an Omnitech Digiscan analyzer and an Apple Macintosh computer equipped with a digital interface board (NB DIO-24, National Instruments, USA). […]
Behavioural data from each activity monitor, representing the position (horizontal center of gravity and vertical activity) of the animal at each time, are recorded at a sampling frequency of 25 Hz and collected using a custom written LABView™ application. The data from each recording session are stored and analyzed with respect to distance traveled. […]
ED50 value for reduction of amphetamine-induced hyper-locomotion is calculated by curve fitting. […]

The compound `CCC(C)(C)NCCOc1cc(F)cc(S(C)(=O)=O)c1` (as salt: hydrochloric acid salt) [Example 7, N-[2-(3-fluoro-5-methylsulfonyl-phenoxy)ethyl]-2-methyl-butan-2-amine] came in with a melting point of 190.2 °C.
With `CCCNCCOc1cc(Cl)cc(S(C)(=O)=O)c1` [Example 12, N-[2-(3-chloro-5-methylsulfonyl-phenoxy)ethyl]propan-1-amine], the ED50 in data set [1] is 10.5 µmol/kg. Further, the Locomotor activity came out at 14414 counts/60 min in data set [2] (3.7 μmol/kg), 12740 counts/60 min in data set [2] (11 μmol/kg) and 7826 counts/60 min in data set [2] (33 μmol/kg).
Consider `CCCN(C)CCOc1cc(F)cc(S(C)(=O)=O)c1` (as salt: hydrochloric acid salt) [Example 4, N-[2-(3-fluoro-5-methylsulfonyl-phenoxy)ethyl]-N-methyl-propan-1-amine], for which the melting point fell in the range of 128 to 130 °C.
Still for that read-out and setting: under `CS(=O)(=O)c1cc(F)cc(OCCNC2CCC2)c1` (as salt: hydrochloric acid salt) [Example 8, N-[2-(3-fluoro-5-methylsulfonyl-phenoxy)ethyl]cyclobutanamine] stands 202 °C.
As to `CCCN(C)CCOc1cc(F)cc(S(C)(=O)=O)c1` [Example 4, N-[2-(3-fluoro-5-methylsulfonyl-phenoxy)ethyl]-N-methyl-propan-1-amine], the ED50 in data set [1] was 28.1 µmol/kg; in data set [3], 69 µmol/kg. Moreover, the Locomotor activity in data set [2] (3.7 μmol/kg) was 11435 counts/60 min; in data set [2] (11 μmol/kg), 10025 counts/60 min; in data set [2] (33 μmol/kg), 12829 counts/60 min.
Regarding `CCCCNCCOc1cc(F)cc(S(C)(=O)=O)c1` [Example 2, N-[2-(3-fluoro-5-methylsulfonyl-phenoxy)ethyl]butan-1-amine], the ED50 in data set [1] is 4.2 µmol/kg. Moreover, the Locomotor activity in data set [2] (3.7 μmol/kg) amounted to 13941 counts/60 min; in data set [2] (11 μmol/kg), 8617 counts/60 min; in data set [2] (33 μmol/kg) it was 6325 counts/60 min.
With `CS(=O)(=O)c1cc(F)cc(OCCN2CCCCC2)c1` (as salt: hydrochloric acid salt) [Example 10, 1-[2-(3-fluoro-5-methylsulfonyl-phenoxy)ethyl]piperidine], the melting point is 194.6 °C.
On the same count and under the same terms, as for `CCN(CC)CCOc1cc(F)cc(S(C)(=O)=O)c1` (as salt: hydrochloric acid salt) [Example 11, N,N-diethyl-2-(3-fluoro-5-methylsulfonyl-phenoxy)ethanamine], the figure is 172.3 °C.
As to `CS(=O)(=O)c1cc(F)cc(OCCN2CCCCC2)c1` [Example 10, 1-[2-(3-fluoro-5-methylsulfonyl-phenoxy)ethyl]piperidine], the ED50 in data set [1] is 14.5 µmol/kg. The results for the Locomotor activity in data set [2] (3.7 μmol/kg), in data set [2] (11 μmol/kg) and in data set [2] (33 μmol/kg) were 11979 counts/60 min, 9344 counts/60 min and 8144 counts/60 min, respectively.
In turn, `CCCCNCCOc1cc(F)cc(S(C)(=O)=O)c1` (as salt: hydrochloric acid salt) [Example 2, N-[2-(3-fluoro-5-methylsulfonyl-phenoxy)ethyl]butan-1-amine] displayed a melting point of 204 °C.
Consider `CS(=O)(=O)c1cc(F)cc(OCCNC2CCCC2)c1` (as salt: hydrochloric acid salt) [Example 6, N-[2-(3-fluoro-5-methylsulfonyl-phenoxy)ethyl]cyclopentanamine], for which the melting point came out at 207.5 °C.
Take `CCC(C)NCCOc1cc(F)cc(S(C)(=O)=O)c1` (stereo not shown) (as salt: hydrochloric acid salt) [Example 5, N-[2-(3-fluoro-5-methylsulfonyl-phenoxy)ethyl]butan-2-amine]: the melting point worked out at 166.5 °C.
On the same count and under the same terms, under `CCNCCOc1cc(F)cc(S(C)(=O)=O)c1` (as salt: hydrochloric acid salt) [Example 3, N-ethyl-2-(3-fluoro-5-methylsulfonyl-phenoxy)ethanamine] stands 200.8 to 201.1 °C; under `CC(C)NCCOc1cc(F)cc(S(C)(=O)=O)c1` (as salt: hydrochloric acid salt) [Example 9, N-[2-(3-fluoro-5-methylsulfonyl-phenoxy)ethyl]propan-2-amine], 173 °C.
Still for that read-out and setting: under `CCCNCCOc1cc(Cl)cc(S(C)(=O)=O)c1` (as salt: hydrochloric acid salt) [Example 12, N-[2-(3-chloro-5-methylsulfonyl-phenoxy)ethyl]propan-1-amine] stands 195 to 197 °C.
